Assay results from ChEMBL document CHEMBL1201862, “PubChem BioAssay data set” (2004).
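All cell lines were grown in 96-well plates and treated with compound for 48 hours. The concentration for 50% growth inhibition is given as GI50.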 The source made the active and inactive calls. No stated cut-off is given here; in the data, active = GI50 up to about 1.1 µM and inactive = higher.

Assays:
Assay in all cases: growth of human tumour cells (NCI), 48 h
TK-10 = test system: TK-10
BT-549 = test system: BT-549
UACC-257 = test system: UACC-257
PC-3 = test system: PC-3
OVCAR-4 = test system: OVCAR-4
HT-29 = test system: HT-29
786-0 = test system: 786-0
MDA-MB-231 = test system: MDA-MB-231
SNB-19 = test system: SNB-19
HCC 2998 = test system: HCC 2998
HOP-62 = test system: HOP-62
KM12 = test system: KM12
U-251 = test system: U-251
EKVX = test system: EKVX
MOLT-4 = test system: MOLT-4
Hs-578T = test system: Hs-578T
Malme-3M = test system: Malme-3M
SR = test system: SR
T47D = test system: T47D

| Structure (SMILES) | GI50 (TK-10) | GI50 (BT-549) | GI50 (UACC-257) | GI50 (PC-3) | GI50 (OVCAR-4) | GI50 (HT-29) | GI50 (786-0) | GI50 (MDA-MB-231) | GI50 (SNB-19) | GI50 (HCC 2998) | GI50 (HOP-62) | GI50 (KM12) | GI50 (U-251) | GI50 (EKVX) | GI50 (MOLT-4) | GI50 (Hs-578T) | GI50 (Malme-3M) | GI50 (SR) | GI50 (T47D) |
| --- | --- | --- | --- | --- | --- | --- | --- | --- | --- | --- | --- | --- | --- | --- | --- | --- | --- | --- | --- |
| C/C=C1/CC(C(=O)OC)N(C(=O)OCc2ccccc2)C1=S (stereo not drawn) | > 100 µM (inactive) | > 100 µM (inactive) | > 100 µM (inactive) | > 100 µM (inactive) | > 100 µM (inactive) | > 100 µM (inactive) | > 100 µM (inactive) | > 100 µM (inactive) | > 100 µM (inactive) | 7.73 µM (inactive) | > 100 µM (inactive) | > 100 µM (inactive) | > 100 µM (inactive) | 84.3 µM (inactive) | > 100 µM (inactive) | > 100 µM (inactive) | > 100 µM (inactive) |  |  |
| O=S(=O)(/C=C/C(=C/c1ccccc1)S(=O)(=O)c1ccccc1)c1ccccc1 | 1.85 µM (inactive) |  | 1.55 µM (inactive) |  | 1.67 µM (inactive) | 1.73 µM (inactive) | 1.77 µM (inactive) |  | 1.78 µM (inactive) | 1.95 µM (inactive) | 1.94 µM (inactive) | 2.16 µM (inactive) | 1.83 µM (inactive) | 1.77 µM (inactive) | 1.52 µM (inactive) |  | 1.81 µM (inactive) | 1.51 µM (inactive) |  |
| O=C(CN1CCOCC1)c1ccc2c(c1)oc(=O)n2CCN1CCCC1 | > 100 µM (inactive) | > 100 µM (inactive) | > 100 µM (inactive) | > 100 µM (inactive) |  | > 100 µM (inactive) | > 100 µM (inactive) | > 100 µM (inactive) | > 100 µM (inactive) |  | > 100 µM (inactive) | > 100 µM (inactive) | > 100 µM (inactive) | > 100 µM (inactive) | > 100 µM (inactive) | > 100 µM (inactive) | > 100 µM (inactive) | > 100 µM (inactive) |  |
| CCOC(=O)N/N=C(\Cc1ccc([N+](=O)[O-])cc1)OCC | > 100 µM (inactive) | > 100 µM (inactive) | > 100 µM (inactive) | > 100 µM (inactive) | > 100 µM (inactive) | > 100 µM (inactive) | > 100 µM (inactive) | > 100 µM (inactive) | > 100 µM (inactive) | > 100 µM (inactive) | > 100 µM (inactive) | > 100 µM (inactive) | > 100 µM (inactive) | > 100 µM (inactive) | > 100 µM (inactive) |  |  | > 100 µM (inactive) |  |
| C1CSCCSS[C@@H]2CCCCC2SC1 (stereo partly drawn) | > 100 µM (inactive) | > 100 µM (inactive) | > 100 µM (inactive) | > 100 µM (inactive) | > 100 µM (inactive) | > 100 µM (inactive) | > 100 µM (inactive) | > 100 µM (inactive) | > 100 µM (inactive) | > 100 µM (inactive) | > 100 µM (inactive) | > 100 µM (inactive) | > 100 µM (inactive) | > 100 µM (inactive) | > 100 µM (inactive) |  |  | > 100 µM (inactive) | > 100 µM (inactive) |
| COc1ccc([C@@]23OC[C@@H]4[C@@H](OC[C@@H]42)c2cc(OC)c(OC)cc23)cc1OC | > 100 µM (inactive) | > 100 µM (inactive) |  | > 100 µM (inactive) | > 100 µM (inactive) |  | > 100 µM (inactive) | > 100 µM (inactive) | > 100 µM (inactive) | > 100 µM (inactive) | > 100 µM (inactive) | > 100 µM (inactive) | > 100 µM (inactive) | > 100 µM (inactive) | > 100 µM (inactive) |  | > 100 µM (inactive) | > 100 µM (inactive) | > 100 µM (inactive) |
| O=C1c2ccccc2/C=C\C(c2ccccc2)=N/N1c1ccccc1Cl | 42.8 µM (inactive) | 10.9 µM (inactive) | 26.8 µM (inactive) | 6.73 µM (inactive) | 22.4 µM (inactive) | 17.5 µM (inactive) | 29.2 µM (inactive) | 11.9 µM (inactive) | 19.1 µM (inactive) | 30.3 µM (inactive) | 23.2 µM (inactive) | 11.6 µM (inactive) | 21.7 µM (inactive) | 22.5 µM (inactive) | 15.3 µM (inactive) | 34.5 µM (inactive) | 23.3 µM (inactive) | > 10 µM (inactive) |  |
| COC(=O)c1c(C)cccc1C1CN=NC12Cc1ccc(C)cc1C2=O (stereo not drawn) | > 100 µM (inactive) |  | 49.1 µM (inactive) | 39.2 µM (inactive) | 48.8 µM (inactive) | 31.8 µM (inactive) | 71.3 µM (inactive) | 47.1 µM (inactive) | 38.1 µM (inactive) | 40.9 µM (inactive) | 52.7 µM (inactive) | 47.9 µM (inactive) | 41.9 µM (inactive) | 26.7 µM (inactive) | 27.4 µM (inactive) | 39.4 µM (inactive) | 33.2 µM (inactive) | 40.2 µM (inactive) | 17.1 µM (inactive) |
| COc1ccc(C2=C(Cl)C(=O)O/C2=C\c2ccc(OC)c(Br)c2)cc1Cl | 21.5 µM (inactive) |  | > 100 µM (inactive) | 39.1 µM (inactive) | > 100 µM (inactive) | > 100 µM (inactive) | 17.2 µM (inactive) |  | 31.8 µM (inactive) | 57.9 µM (inactive) | 14.6 µM (inactive) | > 100 µM (inactive) | 14.1 µM (inactive) | 31.6 µM (inactive) | 41.5 µM (inactive) | 27.4 µM (inactive) | 54 µM (inactive) | 51.8 µM (inactive) | 58.9 µM (inactive) |
| N#CC(=N)c1ncn(CCO)c1NC(=O)C(F)(F)F | > 100 µM (inactive) |  | > 100 µM (inactive) | > 100 µM (inactive) | > 100 µM (inactive) | > 100 µM (inactive) | > 100 µM (inactive) | > 100 µM (inactive) | > 100 µM (inactive) | > 100 µM (inactive) | > 100 µM (inactive) | > 100 µM (inactive) | > 100 µM (inactive) | > 100 µM (inactive) |  | > 100 µM (inactive) | > 100 µM (inactive) | > 100 µM (inactive) | > 100 µM (inactive) |
| COC(=O)/C1=C/C2CC(/C=C(/c3ccccc3)C(=O)O1)C2 | 32.7 µM (inactive) |  | 8.53 µM (inactive) |  |  | 26.9 µM (inactive) | 37.5 µM (inactive) |  | 35.4 µM (inactive) |  | 44.2 µM (inactive) | 23.8 µM (inactive) | 19.7 µM (inactive) | 40.3 µM (inactive) | 17.5 µM (inactive) |  | 12.1 µM (inactive) |  |  |
| C[Si](C)(C)c1ccc(-c2c3ccc(-c4cc(Br)cc(Br)c4)nc3nc3nc(-c4cc(Br)cc(Br)c4)ccc23)cc1 | > 100 µM (inactive) | > 100 µM (inactive) | > 100 µM (inactive) | > 100 µM (inactive) | > 100 µM (inactive) |  | > 100 µM (inactive) | > 100 µM (inactive) | > 100 µM (inactive) | > 100 µM (inactive) | > 100 µM (inactive) | > 100 µM (inactive) | > 100 µM (inactive) | > 100 µM (inactive) |  |  | > 100 µM (inactive) |  | > 100 µM (inactive) |
| O=c1[nH]c(=O)n(COCc2ccccc2)c2ccc(Br)cc12 | > 100 µM (inactive) |  | > 100 µM (inactive) |  | 60.8 µM (inactive) | > 100 µM (inactive) | > 100 µM (inactive) | > 100 µM (inactive) | 64.3 µM (inactive) |  |  | > 100 µM (inactive) | > 100 µM (inactive) | 96.8 µM (inactive) | > 100 µM (inactive) |  |  | > 100 µM (inactive) |  |
| COC(=O)C(NC(=O)CSc1nnc(COc2ccc(Cl)cc2)n1-c1ccccc1)C(C)C (stereo not drawn) | 15.6 µM (inactive) |  | 17.7 µM (inactive) | 21.7 µM (inactive) | 25.6 µM (inactive) | 17 µM (inactive) | 18.1 µM (inactive) | 17.4 µM (inactive) | 29.3 µM (inactive) | 18.6 µM (inactive) | 18.6 µM (inactive) | 19.1 µM (inactive) | 51.4 µM (inactive) | 23 µM (inactive) | 21.6 µM (inactive) |  | 16.5 µM (inactive) | 1.08 µM (active) | 20.8 µM (inactive) |
| O=C(NC/C(Cl)=C/Cl)Nc1c2ccccc2nc2ccccc12 | > 100 µM (inactive) |  | 78.9 µM (inactive) | > 100 µM (inactive) | 35.4 µM (inactive) | 53.2 µM (inactive) | 33.3 µM (inactive) | 22 µM (inactive) | > 100 µM (inactive) | 86.3 µM (inactive) | > 100 µM (inactive) | > 100 µM (inactive) | 70.8 µM (inactive) | > 100 µM (inactive) | 29.3 µM (inactive) | > 100 µM (inactive) | > 100 µM (inactive) | 20.5 µM (inactive) | 71.1 µM (inactive) |
| CC(=O)OCC(OC(C)=O)C1C[C@H]2O[C@@H]3[C@H](C[C@H]2O1)O[C@@]1(C[C@@H]3C)C[C@H](C)[C@@H]2O[C@]3(C[C@@H]2O1)C[C@H]1O[C@H]2[C@H](C)[C@H]4OC(=O)C[C@H]5CC[C@@H]6OC7[C@H]8O[C@]9(CC[C@H]%10CC(=O)[C@H](CC[C@H]%11C[C@@H](C)C(=O)C(C[C@@H]4O[C@H]2C[C@H]1O3)O%11)O%10)CC8O[C@@H]7[C@@H](O9)[C@H]6O5 (stereo partly drawn) |  | 0.000553 µM (active) |  | 0.00337 µM (active) |  |  | 0.00308 µM (active) | 0.0199 µM (active) | 0.0101 µM (active) | 0.003 µM (active) | 0.00505 µM (active) | 0.00183 µM (active) | 0.00506 µM (active) | 0.0201 µM (active) | 0.0184 µM (active) | 0.00179 µM (active) |  | 0.000233 µM (active) |  |
| CC12CCCC(O)C1CCC1=CC3(CCC12)SCCS3 (stereo not drawn) | > 10 µM (inactive) | > 10 µM (inactive) | > 10 µM (inactive) | > 10 µM (inactive) | > 10 µM (inactive) | > 10 µM (inactive) | > 10 µM (inactive) | > 10 µM (inactive) | > 10 µM (inactive) | > 10 µM (inactive) | > 10 µM (inactive) | > 10 µM (inactive) | > 10 µM (inactive) |  |  |  | > 10 µM (inactive) | > 10 µM (inactive) | > 10 µM (inactive) |
